Experiments:
Assay type in all cases: biochemical
PKA = assay: Protein kinase activity assay, PKA; conditions: Table I a; percentage of catalytic activity compared to DMSO; Kemptide substrate
Method: (§1) The protein kinase activity assays were performed essentially as previously described (Engel, M. et al. Embo J 25, 5469-80 (2006)). The assays were done in a 96-well format and 4 μl aliquots spotted on P81 phospho-cellulose papers (Whatman) using epMotion 5070 (Eppendorf), washed in 0.01% phosphoric acid, dried, and then exposed and analyzed using PhosphoImager technology (FLA-9000 Starion, Fujifilm). Atypical PKC (aPKC) activity assays were performed in a total volume of 20 μl containing 50 mM Tris-HCl pH 7.5, 0.05 mg/ml BSA, 0.1% (v/v) 2-mercaptoethanol, 10 mM MgCl2, 100 μM [γ^32P]ATP (5-50 cpm/pmol), 0.003% Brij, 30-50 ng of aPKC, and MBP (10 μM) or PSRtide (100 μM) as the substrate. After 15 min pre-incubation, the kinase reaction was started by addition of 6 μl of an ATP-Mg mix. When required, lipid activator (LA) phosphatidylserine (100 ng) or PKC lipid activator mix (1×) was included in the pre-incubation. Low basal activity and consistent activation of 1-592 PKCζ and 498 PKCζ by LA was obtained when the pre-incubation time was started by addition of the whole mix on the enzyme.
(§2) The substrates were T308tide (200 μM) for PDK1, Kemptide (100 μM) for PKA, and Crosstide (100 μM) for SGK, PKB, S6K, and PRK2. The activity assays for PKCα, β, θ, and δ were performed in the presence of PKC lipid activator mix (1×) using 3 μM of histone H1 as substrate. […]

PKCι = target: T1, PKCι (Homo sapiens, UniProt P41743); assay: Protein kinase activity assay, PKCι; conditions: for Effect on PKCι activity: 50 μM; for Activity (%) Atypical PKCs PKCι: Table I b, percentage of catalytic activity compared to DMSO
T1 construct: made in house; host or cells: HEK293
T1 sequence (P41743 10-596 limits assumed): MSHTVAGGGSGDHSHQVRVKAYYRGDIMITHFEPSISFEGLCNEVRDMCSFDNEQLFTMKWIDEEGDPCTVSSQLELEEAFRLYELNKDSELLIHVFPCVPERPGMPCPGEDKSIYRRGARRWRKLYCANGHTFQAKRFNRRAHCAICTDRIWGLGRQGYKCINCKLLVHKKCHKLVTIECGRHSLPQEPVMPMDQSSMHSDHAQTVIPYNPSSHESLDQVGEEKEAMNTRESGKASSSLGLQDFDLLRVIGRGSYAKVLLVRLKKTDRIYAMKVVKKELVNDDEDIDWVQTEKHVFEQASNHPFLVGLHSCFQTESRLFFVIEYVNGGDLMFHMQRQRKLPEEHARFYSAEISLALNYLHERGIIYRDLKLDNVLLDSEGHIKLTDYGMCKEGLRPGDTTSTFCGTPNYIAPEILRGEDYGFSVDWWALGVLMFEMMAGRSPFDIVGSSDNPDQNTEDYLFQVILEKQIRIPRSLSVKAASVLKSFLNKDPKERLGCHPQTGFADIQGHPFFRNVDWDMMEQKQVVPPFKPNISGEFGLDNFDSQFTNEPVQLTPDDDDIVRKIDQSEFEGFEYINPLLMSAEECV
Method: For the expression and purification of protein kinases fused to GST, pEBG-2T derived plasmids were transfected into 8×14.5 cm dishes containing HEK293 cells using the PEI method ([…] and […]/14.5 cm dish). The cells were lysed after 48 h in a buffer containing 50 mM Tris-HCl pH 7.5, 1 mM EGTA, 1 mM EDTA, 1% (w/v) Triton X-100, 1 mM sodium orthovanadate, […], 5 mM sodium pyrophosphate, 0.27 M sucrose, 0.1% β-mercaptoethanol, and 1 tablet of protease inhibitor cocktail per 50 ml of buffer. Lysates were frozen in liquid nitrogen and kept at −80° C. until required. Purification involved incubation of the cleared lysate with glutathione sepharose, followed by 2 washes with 0.5 M NaCl in lysis buffer, 8 washes with a buffer containing 50 mM Tris-HCl, 0.1 mM EGTA and 0.1% β-mercaptoethanol (buffer A), and a last wash with buffer A supplemented with 0.26 M sucrose. Elution was performed with this last buffer containing 20 mM glutathione and the GST-fusion protein was cleared from resin by filtration through a “SigmaPrep” spin column (Sigma). GST-fusion proteins were aliquoted, snap frozen in liquid nitrogen and kept at −80° C. until use. Purity at this stage was above 85% as estimated by SDS-PAGE and staining with Coomassie Brilliant Blue R250. PRK2 was expressed from pEBG-2T-PRK2 (Balendran, A. et al. J Biol Chem 275, 20806-13. (2000)), SGK1 from pEBG-2T-SGK1-ΔN[Ser422Asp], PKBα from pEBG-2T-PKBα[Ser473Asp] (Biondi et al., D. R. Embo J 20, 4380-90. (2001)), PKCl from pEBG-2T-PKCl and PKCζ from pEBG-2T-PKCζ. PDK1 and S6K1 were expressed in Sf9 insect cells using a baculovirus expression system from pFastBac-PDK1 and pFastBac-56K1-T2[Thr412Glu].
as §1, with “enzyme. […]” for “enzyme.”

PKCθ = target: T2, PKCθ (Homo sapiens, UniProt Q04759); assay: Protein kinase activity assay, PKCθ; conditions: Table I b; percentage of catalytic activity compared to DMSO; lipid activator mix, histone H1
T2 construct: purchased ProQinase
T2 sequence (Q04759 whole entry): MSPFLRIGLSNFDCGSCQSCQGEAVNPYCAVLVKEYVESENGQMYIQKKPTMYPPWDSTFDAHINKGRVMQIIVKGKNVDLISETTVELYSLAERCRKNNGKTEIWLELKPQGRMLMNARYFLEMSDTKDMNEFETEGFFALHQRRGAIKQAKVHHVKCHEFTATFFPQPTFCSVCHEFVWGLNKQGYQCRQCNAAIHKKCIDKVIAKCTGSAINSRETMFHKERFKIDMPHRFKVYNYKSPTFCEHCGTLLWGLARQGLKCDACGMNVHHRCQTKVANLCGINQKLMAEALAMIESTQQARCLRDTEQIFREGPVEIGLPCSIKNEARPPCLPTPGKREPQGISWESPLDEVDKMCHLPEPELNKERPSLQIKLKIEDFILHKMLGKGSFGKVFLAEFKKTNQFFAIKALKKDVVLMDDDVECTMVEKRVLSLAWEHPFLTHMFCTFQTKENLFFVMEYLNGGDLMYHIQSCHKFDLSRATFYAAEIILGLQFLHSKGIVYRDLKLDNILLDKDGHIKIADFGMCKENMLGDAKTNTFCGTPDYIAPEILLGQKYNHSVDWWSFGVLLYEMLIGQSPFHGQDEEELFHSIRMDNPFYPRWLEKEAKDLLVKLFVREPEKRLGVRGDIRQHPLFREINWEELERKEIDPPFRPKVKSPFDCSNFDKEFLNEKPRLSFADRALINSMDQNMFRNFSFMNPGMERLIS
Method: as §1, §2

SGK = target: T3, SGK (Homo sapiens, UniProt O00141, S422D); assay: Protein kinase activity assay, SGK; conditions: Table I a; percentage of catalytic activity compared to DMSO; Crosstide substrate
T3 construct: made in house; host or cells: HEK293
T3 sequence (O00141 61-431 S422D limits assumed): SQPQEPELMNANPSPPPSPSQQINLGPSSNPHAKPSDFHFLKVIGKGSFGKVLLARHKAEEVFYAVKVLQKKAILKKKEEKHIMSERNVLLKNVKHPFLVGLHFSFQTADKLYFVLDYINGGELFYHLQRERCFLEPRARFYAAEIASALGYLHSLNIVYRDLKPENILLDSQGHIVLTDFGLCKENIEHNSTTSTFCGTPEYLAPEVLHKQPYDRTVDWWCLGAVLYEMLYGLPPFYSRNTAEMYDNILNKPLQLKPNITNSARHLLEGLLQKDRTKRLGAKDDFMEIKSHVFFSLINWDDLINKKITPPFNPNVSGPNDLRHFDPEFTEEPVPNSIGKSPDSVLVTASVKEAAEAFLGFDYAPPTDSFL
Method: For the expression and purification of protein kinases fused to GST, pEBG-2T derived plasmids were transfected into 8×14.5 cm dishes containing HEK293 cells using the PEI method ([…] and […]/14.5 cm dish). The cells were lysed after 48 h in a buffer containing 50 mM Tris-HCl pH 7.5, 1 mM EGTA, 1 mM EDTA, 1% (w/v) Triton X-100, 1 mM sodium orthovanadate, […], 5 mM sodium pyrophosphate, 0.27 M sucrose, 0.1% β-mercaptoethanol, and 1 tablet of protease inhibitor cocktail per 50 ml of buffer. Lysates were frozen in liquid nitrogen and kept at −80° C. until required. Purification involved incubation of the cleared lysate with glutathione sepharose, followed by 2 washes with 0.5 M NaCl in lysis buffer, 8 washes with a buffer containing 50 mM Tris-HCl, 0.1 mM EGTA and 0.1% β-mercaptoethanol (buffer A), and a last wash with buffer A supplemented with 0.26 M sucrose. […]
The protein kinase activity assays were performed essentially as previously described (Engel, M. et al. Embo J 25, 5469-80 (2006)). The assays were done in a 96-well format and 4 μl aliquots spotted on P81 phospho-cellulose papers (Whatman) using epMotion 5070 (Eppendorf), washed in 0.01% phosphoric acid, dried, and then exposed and analyzed using PhosphoImager technology (FLA-9000 Starion, Fujifilm). […]

| Activity (%) PKA (PKA) | Effect on PKCι activity (PKCι) | Activity (%) Atypical PKCs PKCι (PKCι) | Activity (%) Novel PKCs PKCθ (PKCθ) | Activity (%) SGK (SGK) | Compound |
| --- | --- | --- | --- | --- | --- |
| 70% | not | 108% | 130% | 93% | Cl.O=C(O)CC(Cc1nc2cc(-c3ccccc3)ccc2[nH]1)c1ccc(Cl)cc1 (stereo not shown) [PS168] |
| 91% | not | 106% | 118% | 97% | Cl.O=C(O)CC(Cc1nc2c(Cl)cc(Cl)cc2[nH]1)c1ccc(Cl)cc1 (stereo not shown) [PS171] |
